Literature values, collected in patent US9314021B2, “Formulations containing insect repellent compounds” (E I DU PONT DE NEMOURS AND COMPANY, priority 2004, dated 2016).

Test system: ant species Monomorium destructor
Details: pure undiluted compound; after 25 seconds of exposure; during feeding

## CC1COC(=O)C2C(C)CCC12 (stereo not shown) [dihydronepetalactone]
  ants ceased to feed: 50-60%
